Measured values as given in ChEMBL document CHEMBL1201862, “PubChem BioAssay data set” (2004).
Activity calls are given as the source filed them.

What was measured:
[1] = target: T1, Tyrosine-protein phosphatase non-receptor type 22 (Homo sapiens, UniProt Q9Y2R2); assay type: functional
[2] = target: T2, Tyrosine-protein phosphatase non-receptor type 7 (Homo sapiens, UniProt P35236); assay type: functional
T2 sequence (P35236 whole entry): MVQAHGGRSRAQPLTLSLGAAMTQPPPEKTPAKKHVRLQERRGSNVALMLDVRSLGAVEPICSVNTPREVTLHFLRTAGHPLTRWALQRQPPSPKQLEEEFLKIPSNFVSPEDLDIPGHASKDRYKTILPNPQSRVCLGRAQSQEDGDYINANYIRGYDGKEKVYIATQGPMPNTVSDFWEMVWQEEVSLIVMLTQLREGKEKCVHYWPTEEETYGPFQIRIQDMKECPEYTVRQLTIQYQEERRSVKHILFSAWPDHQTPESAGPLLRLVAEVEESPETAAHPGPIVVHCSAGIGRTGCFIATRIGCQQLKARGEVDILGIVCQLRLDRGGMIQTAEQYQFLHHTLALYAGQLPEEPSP

[3] = target: T1, Tyrosine-protein phosphatase non-receptor type 22; assay type: functional; remark: listed apart in the source
[4] = Luminescence Cell-Based Dose Response HTS to Identify Inhibitors of 5'UTR Stem-Loop Driven Prion Protein mRNA Translation in H4 Neuroglioblastoma Cells. [Related pubchem assays: 1827 (Project Summary), 1813 (Primary HTS)]; assay type: functional
[5] = target: T3, Delta-type opioid receptor (Homo sapiens, UniProt P41143); assay: HTS Image-Based Screen for Antagonists of the DOR Receptor. [Related pubchem assays (depositor defined):AID1777, AID1785, AID1786, AID2133]; assay type: functional
[6] = inhibitors of SNCA 5'UTR-driven reporter translation, confirmation, H4 neuroglioma cells, luminescence (AID 1988); assay type: functional, cell-based
[7] = target: T4, Microphthalmia-associated transcription factor (Homo sapiens, UniProt O75030); assay: TRPM1 promoter luciferase signal decrease, dose response, MITF inhibitor project, cell-based, SK-MEL-5, cherry-picked, set 3 (AID 493073); assay type: functional
T4 sequence (O75030 whole entry): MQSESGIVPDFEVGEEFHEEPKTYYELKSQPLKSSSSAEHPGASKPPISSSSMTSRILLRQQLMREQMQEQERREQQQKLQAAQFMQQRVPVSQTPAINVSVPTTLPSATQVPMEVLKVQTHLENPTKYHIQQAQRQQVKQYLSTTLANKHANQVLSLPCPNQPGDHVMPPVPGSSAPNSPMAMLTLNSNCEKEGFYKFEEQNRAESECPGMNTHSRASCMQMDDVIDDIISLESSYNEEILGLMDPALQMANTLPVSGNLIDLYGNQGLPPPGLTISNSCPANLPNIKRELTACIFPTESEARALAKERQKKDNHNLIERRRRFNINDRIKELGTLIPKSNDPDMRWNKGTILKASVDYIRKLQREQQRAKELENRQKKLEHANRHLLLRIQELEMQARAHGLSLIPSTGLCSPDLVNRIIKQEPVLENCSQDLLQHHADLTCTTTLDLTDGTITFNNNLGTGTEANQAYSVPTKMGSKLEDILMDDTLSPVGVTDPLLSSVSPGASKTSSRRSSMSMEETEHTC

[8] = target: T5, Kappa-type opioid receptor (Homo sapiens, UniProt P41145); assay type: functional
[9] = inhibitors of intracellular T. cruzi replication, confirmation, NIH3T3 host cells, beta-gal luminescence (AID 2044); assay type: functional, cell-based;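 note: intracellular parasites grown in NIH/3T3 mouse fibroblasts as host cells; luminescent beta-galactosidase reporter signal from transgenic T. cruzi replicating inside host cells; inhibitors lower the luminescence signal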
[10] = target: T3, Delta-type opioid receptor; assay: HTS Image-Based Screen for Agonists of the DOR Receptor. [Related pubchem assays (depositor defined):AID1777, AID1786, AID2133]; assay type: functional
[11] = inhibitors of firefly luciferase expression or activity, dose response, H4 neuroglioma cells, luminescence (AID 1990); assay type: functional, cell-based
Beta-galactosidase = Beta-galactosidase (Escherichia coli, UniProt Q8VNN2); assay type: functional
[12] = target: T5, Kappa-type opioid receptor; assay type: functional; remark: listed apart in the source
[13] = target: G-protein coupled receptor 55 (Homo sapiens, UniProt Q9Y2T6); assay: GPR55 agonists via beta-arrestin recruitment, primary screen, imaging, U2OS cells, beta-arrestin-GFP redistribution (AID 1961); assay type: functional
Mu-type opioid receptor = Mu-type opioid receptor (Homo sapiens, UniProt P35372); assay: HTS Image-Based Screen for Agonists of the MOR Receptor. [Related pubchem assays (depositor defined):AID1777, AID1785, AID1786, AID2133]; assay type: functional;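 note: imaging of beta-arrestin GFP recruitment into spots after receptor activation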
[14] = cytotoxicity toward NIH3T3 fibroblasts, dose response, counter-screen, cell-based, ATP luminescence, mouse fibroblasts (AID 2010); assay type: functional;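 note: cells exposed to compound for about 90 hours before reading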
[15] = target: T6, Heat shock factor protein 1 (Mus musculus, UniProt P38532); assay: HSF1 potentiators in luciferase reporter cells, confirmation, cell-based, NIH3T3, luminescence, dose retest (AID 435004); assay type: functional;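 note: stress induced by proteasome inhibitor MG132 added 30 min after compound; luciferase reporter driven by HSF1 response element in NIH3T3 cells; actives raise luminescence as potentiators of the MG132 stress response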
T6 sequence (P38532 whole entry): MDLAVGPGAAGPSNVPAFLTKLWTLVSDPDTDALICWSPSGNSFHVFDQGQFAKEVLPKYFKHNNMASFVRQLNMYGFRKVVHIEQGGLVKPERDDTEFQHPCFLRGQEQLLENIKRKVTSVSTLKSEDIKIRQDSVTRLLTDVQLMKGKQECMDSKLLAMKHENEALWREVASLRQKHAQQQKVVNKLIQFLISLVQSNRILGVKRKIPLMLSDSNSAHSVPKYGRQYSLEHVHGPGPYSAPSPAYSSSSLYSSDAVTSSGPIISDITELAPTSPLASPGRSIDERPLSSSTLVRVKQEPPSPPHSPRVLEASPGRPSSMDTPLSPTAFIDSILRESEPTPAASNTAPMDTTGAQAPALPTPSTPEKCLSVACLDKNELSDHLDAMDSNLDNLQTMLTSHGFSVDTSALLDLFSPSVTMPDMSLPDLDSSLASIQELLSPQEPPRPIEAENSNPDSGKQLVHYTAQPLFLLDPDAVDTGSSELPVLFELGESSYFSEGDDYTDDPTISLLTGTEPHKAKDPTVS

T1 sequence (Q9Y2R2 whole entry): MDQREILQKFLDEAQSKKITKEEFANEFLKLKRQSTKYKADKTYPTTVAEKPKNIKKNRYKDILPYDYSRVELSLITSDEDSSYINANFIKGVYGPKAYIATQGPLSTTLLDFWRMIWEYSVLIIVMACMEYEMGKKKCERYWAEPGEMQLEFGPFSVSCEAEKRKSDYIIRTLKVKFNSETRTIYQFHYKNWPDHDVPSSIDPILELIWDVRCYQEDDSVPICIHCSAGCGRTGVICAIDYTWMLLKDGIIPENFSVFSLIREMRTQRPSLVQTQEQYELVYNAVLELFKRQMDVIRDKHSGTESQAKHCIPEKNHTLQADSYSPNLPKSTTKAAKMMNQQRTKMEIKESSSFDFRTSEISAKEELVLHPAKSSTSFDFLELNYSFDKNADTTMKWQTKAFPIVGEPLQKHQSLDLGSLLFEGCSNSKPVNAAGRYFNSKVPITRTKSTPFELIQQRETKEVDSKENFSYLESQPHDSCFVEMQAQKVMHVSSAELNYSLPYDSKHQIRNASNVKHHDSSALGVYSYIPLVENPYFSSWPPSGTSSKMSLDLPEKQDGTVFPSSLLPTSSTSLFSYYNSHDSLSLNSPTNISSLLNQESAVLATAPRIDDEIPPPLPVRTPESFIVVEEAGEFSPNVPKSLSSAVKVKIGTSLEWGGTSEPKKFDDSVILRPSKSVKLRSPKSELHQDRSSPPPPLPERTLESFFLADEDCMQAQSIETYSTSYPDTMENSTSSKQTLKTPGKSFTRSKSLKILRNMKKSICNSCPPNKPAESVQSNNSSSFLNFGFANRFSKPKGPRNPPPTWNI
T3 sequence (P41143 whole entry): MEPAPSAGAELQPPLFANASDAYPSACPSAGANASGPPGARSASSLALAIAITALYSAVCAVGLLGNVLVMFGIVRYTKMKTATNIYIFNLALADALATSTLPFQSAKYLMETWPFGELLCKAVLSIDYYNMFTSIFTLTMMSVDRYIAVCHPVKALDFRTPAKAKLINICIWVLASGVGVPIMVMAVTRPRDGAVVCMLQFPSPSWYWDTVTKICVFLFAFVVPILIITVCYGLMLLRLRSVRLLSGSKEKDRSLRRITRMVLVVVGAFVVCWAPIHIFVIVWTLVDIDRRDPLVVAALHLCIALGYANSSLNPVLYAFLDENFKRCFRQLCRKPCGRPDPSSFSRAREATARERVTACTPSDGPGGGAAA
T5 sequence (P41145 whole entry): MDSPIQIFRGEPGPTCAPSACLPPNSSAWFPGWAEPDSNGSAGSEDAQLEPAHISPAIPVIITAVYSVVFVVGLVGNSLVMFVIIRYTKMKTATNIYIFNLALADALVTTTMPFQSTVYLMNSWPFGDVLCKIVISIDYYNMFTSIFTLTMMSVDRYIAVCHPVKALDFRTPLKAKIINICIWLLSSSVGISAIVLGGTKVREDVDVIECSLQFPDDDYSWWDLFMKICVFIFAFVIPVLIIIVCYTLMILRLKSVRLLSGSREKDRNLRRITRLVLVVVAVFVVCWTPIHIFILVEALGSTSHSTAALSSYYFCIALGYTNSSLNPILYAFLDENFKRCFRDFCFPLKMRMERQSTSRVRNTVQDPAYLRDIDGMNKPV
Chain of Beta-galactosidase (Q8VNN2 whole entry): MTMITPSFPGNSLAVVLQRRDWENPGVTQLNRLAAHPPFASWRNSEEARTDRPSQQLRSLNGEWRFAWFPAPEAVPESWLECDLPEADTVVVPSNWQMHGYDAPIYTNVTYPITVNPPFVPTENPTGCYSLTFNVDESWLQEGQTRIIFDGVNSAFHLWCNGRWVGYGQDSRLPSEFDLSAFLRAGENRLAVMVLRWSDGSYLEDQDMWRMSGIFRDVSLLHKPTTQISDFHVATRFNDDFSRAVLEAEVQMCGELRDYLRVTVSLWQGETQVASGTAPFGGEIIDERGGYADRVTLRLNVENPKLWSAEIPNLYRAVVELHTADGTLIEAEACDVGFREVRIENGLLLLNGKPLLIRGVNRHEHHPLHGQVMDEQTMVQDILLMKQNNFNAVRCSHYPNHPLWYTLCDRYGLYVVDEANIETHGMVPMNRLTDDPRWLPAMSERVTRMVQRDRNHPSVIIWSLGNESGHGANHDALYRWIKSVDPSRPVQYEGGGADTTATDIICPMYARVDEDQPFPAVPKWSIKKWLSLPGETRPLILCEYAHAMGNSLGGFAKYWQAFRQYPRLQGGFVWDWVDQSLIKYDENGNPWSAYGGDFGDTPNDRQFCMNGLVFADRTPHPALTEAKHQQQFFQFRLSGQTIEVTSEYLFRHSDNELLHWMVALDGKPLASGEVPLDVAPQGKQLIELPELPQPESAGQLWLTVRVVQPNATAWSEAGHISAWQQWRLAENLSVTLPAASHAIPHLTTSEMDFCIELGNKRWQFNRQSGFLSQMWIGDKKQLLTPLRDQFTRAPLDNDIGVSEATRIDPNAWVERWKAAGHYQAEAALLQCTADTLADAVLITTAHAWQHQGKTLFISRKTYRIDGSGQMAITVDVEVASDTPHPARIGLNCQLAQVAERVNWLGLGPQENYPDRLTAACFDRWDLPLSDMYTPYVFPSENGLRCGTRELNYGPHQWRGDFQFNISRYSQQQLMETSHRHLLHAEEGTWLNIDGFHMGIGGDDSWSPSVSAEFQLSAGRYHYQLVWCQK
Chain of G-protein coupled receptor 55 (Q9Y2T6 whole entry): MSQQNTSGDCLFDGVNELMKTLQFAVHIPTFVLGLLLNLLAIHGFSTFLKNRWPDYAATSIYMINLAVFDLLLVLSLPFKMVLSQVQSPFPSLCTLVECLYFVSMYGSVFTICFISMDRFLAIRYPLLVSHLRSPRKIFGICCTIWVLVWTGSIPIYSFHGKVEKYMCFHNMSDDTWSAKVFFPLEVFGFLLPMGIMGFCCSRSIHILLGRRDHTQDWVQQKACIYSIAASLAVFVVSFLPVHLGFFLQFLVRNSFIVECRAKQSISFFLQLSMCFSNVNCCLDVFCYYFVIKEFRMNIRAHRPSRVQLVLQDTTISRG
Chain of Mu-type opioid receptor (P35372 whole entry): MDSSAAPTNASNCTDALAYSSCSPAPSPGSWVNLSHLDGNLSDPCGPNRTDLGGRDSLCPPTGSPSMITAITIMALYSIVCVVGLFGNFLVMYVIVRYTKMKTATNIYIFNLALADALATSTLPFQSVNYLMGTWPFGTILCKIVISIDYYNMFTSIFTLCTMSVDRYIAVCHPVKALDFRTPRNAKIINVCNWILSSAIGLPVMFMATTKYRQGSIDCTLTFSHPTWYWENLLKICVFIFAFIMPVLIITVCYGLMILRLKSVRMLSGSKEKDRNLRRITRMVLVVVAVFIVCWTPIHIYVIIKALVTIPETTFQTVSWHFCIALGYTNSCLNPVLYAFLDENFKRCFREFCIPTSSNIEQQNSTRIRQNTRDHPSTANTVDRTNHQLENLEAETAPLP

In the case of `CCOC(=O)c1cnc2c(Cl)c(Cl)ccc2c1NCCN1CCOCC1`, the IC50 [1] is reported as > 79.4 µM (inactive), the IC50 [2] is reported as > 79.4 µM (inactive) and the IC50 [3] is reported as > 79.4 µM (inactive).

With `COc1ccc(C(=O)/C=C/C(=O)N(CC(=O)NC2CCCCC2)Cc2ccccc2)c(O)c1` the EC50 [4] was > 120 µM (not active), the IC50 [5] was > 32 µM (inactive) and the EC50 [6] was 9.06 µM (active). For the same compound, the AC50 [7] was 5.24 µM (active), the IC50 [8] was 4.97 µM (active) and the EC50 [9] was 1.64 µM (active). The EC50 [10] was > 32 µM (inactive), the EC50 [11] was > 60 µM (not active) and the EC50 (Beta-galactosidase) was > 31.5 µM (inactive). The IC50 [12] was 8.34 µM, the EC50 [13] was > 32 µM (inactive) and the EC50 (Mu-type opioid receptor) was > 32 µM (inactive). For the same compound, the EC50 [14] was > 60 µM (inconclusive) and the EC50 [15] was > 260 µM (inactive).
